{
  "source": "patent US9078845B2",
  "about": "“Anti-microbial agent” (priority 2005, dated 2015)",
  "key": {"Morazella Catarrhalis": {"system": "Morazella Catarrhalis", "settings": "48 hours at 37° C."}, "[1]": {"system": "Staphylococcus aureus ATCC 6538", "settings": "48 hours at 37° C."}, "Pseudomonas aeruginosa": {"system": "Pseudomonas aeruginosa", "test": "suspension test", "type": "cell-based", "settings": "after 30 mins", "description": "The compositions were tested for antimicrobial activity using the suspension test in Example 3 outlined at room temperature against the following organisms:\nThe anti-microbial activity of a-linolenic acid and terpinen-4-ol separately and in combination were tested using the suspension test as outlined in Example 3 above."}, "[2]": {"system": "Methicillin Resistant Staphylococcus Wild Strain", "settings": "48 hours at 37° C."}, "[3]": {"system": "Salmonella cholerae-suis ATCC 10708", "test": "Minimum Inhibitory Concentration Test (broth dilution, turbidity)", "type": "cell-based", "settings": "48 hours at 37° C."}, "[4]": {"system": "Escherichia coli ATCC 8739", "settings": "48 hours at 37° C."}, "[5]": {"system": "Streptococcus pyogenes University of Melbourne MDU", "settings": "48 hours at 37° C."}, "[6]": {"settings": "dilution 1:100 in Tryptone Soya broth"}, "[7]": {"settings": "dilution 1:200 in Tryptone Soya broth"}, "[8]": {"settings": "dilution 1:400 in Tryptone Soya broth"}, "[9]": {"settings": "dilution 1:800 in Tryptone Soya broth"}, "[10]": {"settings": "dilution 1:1600 in Tryptone Soya broth"}, "[11]": {"settings": "dilution 1:3200 in Tryptone Soya broth"}, "[12]": {"settings": "dilution 1:6400 in Tryptone Soya broth"}, "[13]": {"settings": "dilution 1:12800 in Tryptone Soya broth"}, "[14]": {"settings": "dilution 1:25600 in Tryptone Soya broth"}, "[15]": {"settings": "dilution 1:51200 in Tryptone Soya broth"}, "[16]": {"settings": "dilution 1:102400 in Tryptone Soya broth"}},
  "data": [
    {"smiles": "CC/C=C\\C/C=C\\C/C=C\\CCCCCCCC(=O)O", "note": "[α-linolenic acid]", "values": [
      {"measurement": "Growth (turbidity) at Dilution 1:100", "setting": "Morazella Catarrhalis; [6]", "value": "−"},
      {"measurement": "Growth (turbidity) at Dilution 1:200", "setting": "Morazella Catarrhalis; [7]", "value": "−"},
      {"measurement": "Growth (turbidity) at Dilution 1:400", "setting": "Morazella Catarrhalis; [8]", "value": "−"},
      {"measurement": "Growth (turbidity) at Dilution 1:800", "setting": "Morazella Catarrhalis; [9]", "value": "−"},
      {"measurement": "Growth (turbidity) at Dilution 1:1600", "setting": "Morazella Catarrhalis; [10]", "value": "−"},
      {"measurement": "Growth (turbidity) at Dilution 1:3200", "setting": "Morazella Catarrhalis; [11]", "value": "−"},
      {"measurement": "Growth (turbidity) at Dilution 1:6400", "setting": "Morazella Catarrhalis; [12]", "value": "−"},
      {"measurement": "Growth (turbidity) at Dilution 1:12800", "setting": "Morazella Catarrhalis; [13]", "value": "+"},
      {"measurement": "Growth (turbidity) at Dilution 1:25600", "setting": "Morazella Catarrhalis; [14]", "value": "+"},
      {"measurement": "Growth (turbidity) at Dilution 1:51200", "setting": "Morazella Catarrhalis; [15]", "value": "+"},
      {"measurement": "Growth (turbidity) at Dilution 1:102400", "setting": "Morazella Catarrhalis; [16]", "value": "+"},
      {"measurement": "Growth (turbidity) at Dilution 1:100", "setting": "[1]; [6]", "value": "−"},
      {"measurement": "Growth (turbidity) at Dilution 1:200", "setting": "[1]; [7]", "value": "−"},
      {"measurement": "Growth (turbidity) at Dilution 1:400", "setting": "[1]; [8]", "value": "−"},
      {"measurement": "Growth (turbidity) at Dilution 1:800", "setting": "[1]; [9]", "value": "−"},
      {"measurement": "Growth (turbidity) at Dilution 1:1600", "setting": "[1]; [10]", "value": "−"},
      {"measurement": "Growth (turbidity) at Dilution 1:3200", "setting": "[1]; [11]", "value": "−"},
      {"measurement": "Growth (turbidity) at Dilution 1:6400", "setting": "[1]; [12]", "value": "−"},
      {"measurement": "Growth (turbidity) at Dilution 1:12800", "setting": "[1]; [13]", "value": "−"},
      {"measurement": "Growth (turbidity) at Dilution 1:25600", "setting": "[1]; [14]", "value": "−"},
      {"measurement": "Growth (turbidity) at Dilution 1:102400", "setting": "[1]; [16]", "value": "+"},
      {"measurement": "reduction in the survival of P. aeruginosa", "setting": "Pseudomonas aeruginosa", "value": 1, "unit": "log10"},
      {"measurement": "Growth (turbidity) at Dilution 1:100", "setting": "[2]; [6]", "value": "−"},
      {"measurement": "Growth (turbidity) at Dilution 1:200", "setting": "[2]; [7]", "value": "−"},
      {"measurement": "Growth (turbidity) at Dilution 1:400", "setting": "[2]; [8]", "value": "−"},
      {"measurement": "Growth (turbidity) at Dilution 1:800", "setting": "[2]; [9]", "value": "−"},
      {"measurement": "Growth (turbidity) at Dilution 1:1600", "setting": "[2]; [10]", "value": "−"},
      {"measurement": "Growth (turbidity) at Dilution 1:3200", "setting": "[2]; [11]", "value": "−"},
      {"measurement": "Growth (turbidity) at Dilution 1:6400", "setting": "[2]; [12]", "value": "−"},
      {"measurement": "Growth (turbidity) at Dilution 1:12800", "setting": "[2]; [13]", "value": "−"},
      {"measurement": "Growth (turbidity) at Dilution 1:25600", "setting": "[2]; [14]", "value": "−"},
      {"measurement": "Growth (turbidity) at Dilution 1:51200", "setting": "[2]; [15]", "value": "−"},
      {"measurement": "Growth (turbidity) at Dilution 1:102400", "setting": "[2]; [16]", "value": "+"},
      {"measurement": "Growth (turbidity) at Dilution 1:100", "setting": "[3]; [6]", "value": "−"},
      {"measurement": "Growth (turbidity) at Dilution 1:200", "setting": "[3]; [7]", "value": "−"},
      {"measurement": "Growth (turbidity) at Dilution 1:400", "setting": "[3]; [8]", "value": "+"},
      {"measurement": "Growth (turbidity) at Dilution 1:800", "setting": "[3]; [9]", "value": "+"},
      {"measurement": "Growth (turbidity) at Dilution 1:1600", "setting": "[3]; [10]", "value": "+"},
      {"measurement": "Growth (turbidity) at Dilution 1:3200", "setting": "[3]; [11]", "value": "+"},
      {"measurement": "Growth (turbidity) at Dilution 1:6400", "setting": "[3]; [12]", "value": "+"},
      {"measurement": "Growth (turbidity) at Dilution 1:12800", "setting": "[3]; [13]", "value": "+"},
      {"measurement": "Growth (turbidity) at Dilution 1:25600", "setting": "[3]; [14]", "value": "+"},
      {"measurement": "Growth (turbidity) at Dilution 1:51200", "setting": "[3]; [15]", "value": "+"},
      {"measurement": "Growth (turbidity) at Dilution 1:102400", "setting": "[3]; [16]", "value": "+"},
      {"measurement": "Growth (turbidity) at Dilution 1:100", "setting": "[4]; [6]", "value": "+"},
      {"measurement": "Growth (turbidity) at Dilution 1:200", "setting": "[4]; [7]", "value": "+"},
      {"measurement": "Growth (turbidity) at Dilution 1:400", "setting": "[4]; [8]", "value": "+"},
      {"measurement": "Growth (turbidity) at Dilution 1:800", "setting": "[4]; [9]", "value": "+"},
      {"measurement": "Growth (turbidity) at Dilution 1:1600", "setting": "[4]; [10]", "value": "+"},
      {"measurement": "Growth (turbidity) at Dilution 1:3200", "setting": "[4]; [11]", "value": "+"},
      {"measurement": "Growth (turbidity) at Dilution 1:6400", "setting": "[4]; [12]", "value": "+"},
      {"measurement": "Growth (turbidity) at Dilution 1:12800", "setting": "[4]; [13]", "value": "+"},
      {"measurement": "Growth (turbidity) at Dilution 1:25600", "setting": "[4]; [14]", "value": "+"},
      {"measurement": "Growth (turbidity) at Dilution 1:51200", "setting": "[4]; [15]", "value": "+"},
      {"measurement": "Growth (turbidity) at Dilution 1:102400", "setting": "[4]; [16]", "value": "+"},
      {"measurement": "Growth (turbidity) at Dilution 1:100", "setting": "[5]; [6]", "value": "−"},
      {"measurement": "Growth (turbidity) at Dilution 1:200", "setting": "[5]; [7]", "value": "−"},
      {"measurement": "Growth (turbidity) at Dilution 1:400", "setting": "[5]; [8]", "value": "−"},
      {"measurement": "Growth (turbidity) at Dilution 1:800", "setting": "[5]; [9]", "value": "−"},
      {"measurement": "Growth (turbidity) at Dilution 1:1600", "setting": "[5]; [10]", "value": "−"},
      {"measurement": "Growth (turbidity) at Dilution 1:3200", "setting": "[5]; [11]", "value": "−"},
      {"measurement": "Growth (turbidity) at Dilution 1:6400", "setting": "[5]; [12]", "value": "−"},
      {"measurement": "Growth (turbidity) at Dilution 1:12800", "setting": "[5]; [13]", "value": "−"},
      {"measurement": "Growth (turbidity) at Dilution 1:51200", "setting": "[5]; [15]", "value": "+"},
      {"measurement": "Growth (turbidity) at Dilution 1:102400", "setting": "[5]; [16]", "value": "+"}
    ]},
    {"smiles": "CC1=CCC(O)(C(C)C)CC1", "note": "(stereo not drawn) [terpinen-4-ol]", "values": [
      {"measurement": "reduction in the survival of P. aeruginosa", "setting": "Pseudomonas aeruginosa", "value": 1, "unit": "log10"}
    ]}
  ]
}
